Measured values as given in patent US12442035B2, “Compositions and methods for detecting antibiotic responsive mRNA expression signatures and uses thereof” (THE BROAD INSTITUTE, INC., priority 2018, dated 2025).
In brackets after ≈: the same amount, converted by molar mass. Entries after “also recorded” stand apart in the source; their conditions may differ. Where two headings read alike, the source gives them in different places.

Tests used:
[1] = tested on: S. aureus clinical isolates; test: Standard broth microdilution MIC; format: cell-based; settings: Staphylococcus aureus, read-out: levo MIC
Description: (§3) All strains in this study (Table 7) were obtained from clinical or reference microbiological laboratories, including both local hospitals and MDRO strain collections from the Centers for Disease Control's Antibiotic Resistance Isolate Bank (see e.g., World Wide Web at (www).cdc.gov/ARIsolateBank/) and the New York State Department of Health.

[2] = tested on: K. pneumoniae clinical isolates; test: Standard broth microdilution MIC; format: cell-based, Klebsiella pneumoniae
Description: as §3

[3] = tested on: E. coli clinical isolates; test: Standard broth microdilution MIC; format: cell-based, Escherichia coli; settings: for MIC: Escherichia coli
Description: as §3

[4] = tested on: K. pneumoniae clinical isolates; test: RNA-Seq transcriptional response to antibiotic exposure, GO term enrichment; format: cell-based, Klebsiella pneumoniae; settings: CLSI breakpoint concentration, 0, 10, 30, 60 minutes
Description: (§1) Fisher's combined probability test was used to select only those genes whose expression after antibiotic treatment was statistically distinguishable from its expression at any timepoint in the untreated samples. Gene ontology (GO) terms were assigned using blast2GO (version 1.4.4), with hypergeometric testing for enrichment. For each pathogen-antibiotic pair, the fold-change threshold in DESeq2 used to test statistical significance was increased to select 60-100 antibiotic-responsive transcripts with maximal stringency, a number readily accommodated by the NanoString® assay format. […] As with responsive genes, the fold-change threshold was varied in order to select the top 10-20 control transcripts. […] See Supplemental Methods sections below for further details.
(§2) After antibiotic treatment as described in the above Materials and Methods section, cells were pelleted, resuspended in 0.5 mL Trizol reagent (ThermoFisher Scientific), transferred to 1.5 mL screw-cap tubes containing 0.25 mL of 0.1 mm diameter Zirconia/Silica beads (BioSpec Products), and lysed mechanically via bead-beating for 3-5 one-minute cycles on a Minibeadbeater-16 (BioSpec) or one 90-second cycle at 10 m/sec on a FastPrep (MP Bio). After addition of 0.1 mL chloroform, each sample tube was mixed thoroughly by inversion, incubated for 3 minutes at room temperature, and centrifuged at 12,000×g for 15 minutes at 4° C. […]

[5] = tested on: E. coli clinical isolates; test: as above; format: cell-based, Escherichia coli; settings: CLSI breakpoint concentration, 0, 10, 30, 60 minutes
[6] = tested on: A. baumannii clinical isolates; test: as above; format: cell-based, Acinetobacter baumannii; settings: CLSI breakpoint concentration, 0, 10, 30, 60 minutes
Description: as §1, §2

Compound: C[C@H]1COc2c(N3CCN(C)CC3)c(F)cc3c(=O)c(C(=O)O)cn1c23 [levofloxacin]
- MIC ([1]; S. aureus strain RB003): 0.125 µg/mL (≈ 0.346 µM)
- MIC ([1]; S. aureus strain RB004): 32 µg/mL (≈ 88.6 µM)
- MIC ([1]; S. aureus strain RB006): 0.06 µg/mL (≈ 0.166 µM)
- MIC ([1]; S. aureus strain RB007): 16 µg/mL (≈ 44.3 µM)
- MIC ([1]; S. aureus strain RB010): > 32 µg/mL
- MIC ([1]; S. aureus strain RB045): 32 µg/mL (≈ 88.6 µM)
- MIC ([1]; S. aureus strain RB047): > 32 µg/mL
- MIC ([1]; S. aureus strain RB064): 8 µg/mL (≈ 22.1 µM)
- MIC ([1]; S. aureus strain RB065): 0.06 µg/mL (≈ 0.166 µM)
- MIC ([1]; S. aureus strain RB066): 0.06 µg/mL (≈ 0.166 µM)
- MIC ([1]; S. aureus strain RB067): 0.13 µg/mL (≈ 0.36 µM)
- MIC ([1]; S. aureus strain RB0069): 0.13 µg/mL (≈ 0.36 µM)
- MIC ([1]; S. aureus strain RB072): 4 µg/mL (≈ 11.1 µM)
- MIC ([1]; S. aureus strain RB074): 32 µg/mL (≈ 88.6 µM)
- MIC ([1]; S. aureus strain RB090): 32 µg/mL (≈ 88.6 µM)
- MIC ([1]; S. aureus strain RB095): 32 µg/mL (≈ 88.6 µM)
- MIC ([1]; S. aureus strain RB096): 0.13 µg/mL (≈ 0.36 µM)
- MIC ([1]; S. aureus strain RB098): 0.13 µg/mL (≈ 0.36 µM)
- MIC ([1]; S. aureus strain RB211): 16 µg/mL (≈ 44.3 µM)
- MIC ([1]; S. aureus strain RB219): 32 µg/mL (≈ 88.6 µM)
- MIC ([1]; S. aureus strain RB221): 0.13 µg/mL (≈ 0.36 µM)
- MIC ([1]; S. aureus strain RB223): 0.13 µg/mL (≈ 0.36 µM)
- MIC ([1]; S. aureus strain RB245): 0.25 µg/mL (≈ 0.692 µM)
- MIC ([1]; S. aureus strain RB247): 0.5 µg/mL (≈ 1.38 µM)

Compound: C[C@@H](O)[C@H]1C(=O)N2C(C(=O)O)=C(S[C@@H]3CN[C@H](C(=O)N(C)C)C3)[C@H](C)[C@H]12 [mero]
- mero MIC ([2]; KpMero strain AR0034): 2 mg/L
- mero MIC ([2]; KpMero strain AR0040): >32 mg/L
- mero MIC ([2]; KpMero strain AR0041): 16 mg/L
- mero MIC ([2]; KpMero strain AR0042): <0.5 mg/L
- mero MIC ([2]; KpMero strain AR0043): 2 mg/L
- mero MIC ([2]; KpMero strain AR0044): 4 mg/L
- mero MIC ([2]; KpMero strain AR0047): 4 mg/L
- mero MIC ([2]; KpMero strain AR0075): 8 mg/L
- mero MIC ([2]; KpMero strain AR0087): 1 mg/L
- mero MIC ([2]; KpMero strain AR0135): 8 mg/L
- mero MIC ([2]; KpMero strain AR0139): 32 mg/L
- mero MIC ([2]; KpMero strain BAA2524 (RB554), value marked *): 0.5* mg/L
- mero MIC ([2]; KpMero strain BIDMC_14): 16 mg/L
- mero MIC ([2]; KpMero strain BIDMC_22): 0.25 mg/L
- mero MIC ([2]; KpMero strain BIDMC_31): 0.125 mg/L
- mero MIC ([2]; KpMero strain BIDMC_35): >32 mg/L
- mero MIC ([2]; KpMero strain BIT-03): 8 mg/L
- mero MIC ([2]; KpMero strain BIT-04): 32 mg/L
- mero MIC ([2]; KpMero strain BIT-05): >32 mg/L
- mero MIC ([2]; KpMero strain BIT-12): <0.5 mg/L
- mero MIC ([2]; KpMero strain BIT-16): ≤0.5 mg/L
- mero MIC ([2]; KpMero strain BWH_2): 16 mg/L
- mero MIC ([2]; KpMero strain BWH_15): 8 mg/L
- mero MIC ([2]; KpMero strain BWH_30): ≤0.5 mg/L
- mero MIC ([2]; KpMero strain BWH_36): 16 mg/L
- mero MIC ([2]; KpMero strain CDC_1500610): ≤0.5 mg/L
- mero MIC ([2]; KpMero strain IDR1200023303): >32 mg/L
- mero MIC ([2]; KpMero strain IDR1600031102-01-00): >32 mg/L
- mero MIC ([2]; KpMero strain IDR1600037310): 1 mg/L
- mero MIC ([2]; KpMero strain IDR1600057468-01-00): 4 mg/L
- mero MIC ([2]; KpMero strain MGH_17): ≤0.5 mg/L
- mero MIC ([2]; KpMero strain MGH_18): ≤0.5 mg/L
- mero MIC ([2]; KpMero strain MGH_19): ≤0.5 mg/L
- mero MIC ([2]; KpMero strain MGH_20): ≤0.5 mg/L
- mero MIC ([2]; KpMero strain MGH_31): 8 mg/L
- mero MIC ([2]; KpMero strain MGH_35): 2 mg/L
- mero MIC ([2]; KpMero strain MGH_36): ≤0.5 mg/L
- mero MIC ([2]; KpMero strain MGH_39): 2 mg/L
- mero MIC ([2]; KpMero strain MGH_48): ≤0.5 mg/L
- mero MIC ([2]; KpMero strain MGH_71): 32 mg/L
- mero MIC ([2]; KpMero strain RB039): ≤0.5 mg/L
- mero MIC ([2]; KpMero strain RB041): ≤0.5 mg/L
- mero MIC ([2]; KpMero strain RB042): ≤0.5 mg/L
- mero MIC ([2]; KpMero strain UCI_7): 0.25 mg/L
- mero MIC ([2]; KpMero strain UCI_19): >32 mg/L
- mero MIC ([2]; KpMero strain UCI_37): 32 mg/L
- mero MIC ([2]; KpMero strain UCI_38): ≤0.5 mg/L
- mero MIC ([2]; KpMero strain UCI_44): 0.25 mg/L
- mero MIC ([2]; KpMero strain UCI_61): 32 mg/L
- mero MIC ([2]; KpMero strain UCI_64): 0.25 mg/L
- mero MIC ([3]; EcMero strain AR0048): 32 mg/L
- mero MIC ([3]; EcMero strain AR0055): 8 mg/L
- mero MIC ([3]; EcMero strain AR0058): 0.25 mg/L
- mero MIC ([3]; EcMero strain AR0061): 8 mg/L
- mero MIC ([3]; EcMero strain AR0069): 16 mg/L
- mero MIC ([3]; EcMero strain AR0077): 0.5 mg/L
- mero MIC ([3]; EcMero strain AR0089): 0.5 mg/L
- mero MIC ([3]; EcMero strain AR0104, value marked *): 1* mg/L
- mero MIC ([3]; EcMero strain BAA2469): 16 mg/L
- mero MIC ([3]; EcMero strain BAA2523 (RB553), value marked *): 0.5* mg/L
- mero MIC ([3]; EcMero strain BIDMC_77): 0.5 mg/L
- mero MIC ([3]; EcMero strain IDR1200024571): >32 mg/L
- mero MIC ([3]; EcMero strain IDR1200039757): >32 mg/L
- mero MIC ([3]; EcMero strain IDR1300027657): 1 mg/L
- mero MIC ([3]; EcMero strain IDR1600029769): 8 mg/L
- mero MIC ([3]; EcMero strain IDR1600035372): 0.5 mg/L

Compound: C[C@@H](O)[C@H]1C(=O)N2C(C(=O)O)=C(S[C@@H]3CN[C@H](C(=O)N(C)C)C3)[C@H](C)[C@H]12 [meropenem]
- MIC ([3]; BAA2523, E. coli BAA2523 (blaOXA-48), inoculum of 10^7 cfu/mL): ≥ 32 µg/mL
- MIC ([3]; BAA2523, E. coli BAA2523 (blaOXA-48), standard broth microdilution, inoculum of 10^5 cfu/mL): 0.5 to 1 µg/mL (≈ 1.3 to 2.61 µM)
- MIC ([3]; E. coli AR0104 (blaKPC-4), inoculum of 10^7 cfu/mL): ≥ 32 µg/mL
- MIC ([3]; E. coli AR0104 (blaKPC-4), standard broth microdilution, inoculum of 10^5 cfu/mL): 0.5 to 1 µg/mL (≈ 1.3 to 2.61 µM)
- Gene ontology enrichment of antibiotic-responsive transcripts [4]: affected lipopolysaccharide biosynthesis
- Gene ontology enrichment of antibiotic-responsive transcripts [5]: affected lipopolysaccharide biosynthesis; also recorded: induced a heat shock response
- Gene ontology enrichment of antibiotic-responsive transcripts [6]: induced a heat shock response
